Laboratory results from publication PMC9225965 (Bioorganic & Medicinal Chemistry Letters, 2022).

What was measured:
SARS-CoV-2 M^pro = SARS-CoV-2 M^pro (Severe acute respiratory syndrome coronavirus 2, UniProt P0DTD1); test: biochemical; conditions: for inhibition at 50 µM: read-out: M^pro inhibition
SARS-CoV-2 main protease = conditions: read-out: reported IC50; similar FRET-based assays; cited from earlier work

Compound	activity in the presence of Triton-X (aggregation control) (SARS-CoV-2 M^pro; IC50 experiment repeated with 0.02 % Triton-X in reaction buffer)	inhibition at 50 µM (SARS-CoV-2 M^pro)	IC50 (SARS-CoV-2 main protease)
O=C(CSc1nc2cc(Cl)ccc2n1Cc1ccccc1)N1CCNC1=O [Compound 8]	not attenuated	> 50%	–
COCCn1c(C(=O)NCC(O)c2ccccc2)nc2ccccc2c1=O (stereo not shown) [Compound 10]	–	> 50%	–
